This note sets out measurements from patent US10280171B2, “Heterocyclic inhibitors of PTPN11” (priority 2016, dated 2019).

The target of assay [1] is PTPN11-E76K mutant enzyme (Homo sapiens (Human), UniProt Q06124, E76K). Kind of assay: PTPN11 Enzymatic Assay (DiFMUP phosphatase activity). It is filed as biochemical. To be noted: full length PTPN11-E76K mutant enzyme 250 pM, DiFMUP 50 μM, 30 min preincubation; read-out: PTPN11-E76K Avg IC50. How it is done:
Reaction was initiated by addition of DiFMUP (50 μM) at room temperature in 384-well black plate with a final reaction volume of 20 uL in assay buffer. […] Dose-response curves were analyzed using IC50 regression curve fitting (GeneData Screener). Curves were normalized to a high controls without inhibitor, and low controls without enzyme.

Assay [2] has as its system Phospho-ERK levels in KYSE-520 cells. Nature of the assay: pERK AlphaScreen Protocol. It counts as cell-based. The settings on record: Homo sapiens, KYSE-520, 2 h, KYSE-520 cells, 2 hr compound incubation, phospho-ERK1/2 AlphaScreen SureFire; read-out: PERK Avg IC50. The method, then: KYSE-520 cells (10 k cells/well) were grown in 384-well plate in 20 uL of medium (RPMI-1640, without phenol red, containing 10% FBS) at 37° C. with 5% CO2 overnight. DMSO (control) or increasing concentrations of compounds were diluted in medium, added to the 384-well plate (5 uL/well, final DMSO concentration of 1%), and cells were then incubated with compounds for 2 hr. Phospho-ERK levels were measured using phospho-ERK1/2 AlphaScreen SureFire (PerkinElmer, TGRESB10K) following manufacturer's recommendations. Dose-response curves were analyzed using IC50 regression curve fitting (GeneData Screener). Curves were normalized to a high control without inhibitor (DMSO only), and low control (1 μM selumetinib).
(In general: Bead proximity is the source of the signal in Alpha formats.)

As usually defined, the IC50 is the concentration that gives 50% inhibition.

Sequence of PTPN11-E76K mutant enzyme (Q06124 whole entry E76K): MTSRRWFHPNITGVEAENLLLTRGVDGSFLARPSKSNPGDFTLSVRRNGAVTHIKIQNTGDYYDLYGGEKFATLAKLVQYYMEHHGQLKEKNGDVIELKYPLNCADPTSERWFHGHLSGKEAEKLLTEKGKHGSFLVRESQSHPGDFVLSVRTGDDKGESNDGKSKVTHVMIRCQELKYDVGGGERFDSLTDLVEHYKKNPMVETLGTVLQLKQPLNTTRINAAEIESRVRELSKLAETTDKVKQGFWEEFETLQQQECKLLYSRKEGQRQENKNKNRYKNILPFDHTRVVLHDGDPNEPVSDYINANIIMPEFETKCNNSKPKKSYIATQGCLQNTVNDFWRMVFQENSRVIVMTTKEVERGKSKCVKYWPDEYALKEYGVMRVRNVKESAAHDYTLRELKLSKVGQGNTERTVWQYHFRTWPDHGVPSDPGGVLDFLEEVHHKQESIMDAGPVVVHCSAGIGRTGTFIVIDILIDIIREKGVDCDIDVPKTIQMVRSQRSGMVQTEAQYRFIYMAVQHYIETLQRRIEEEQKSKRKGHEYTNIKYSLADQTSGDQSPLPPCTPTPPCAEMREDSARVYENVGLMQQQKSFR

Regarding `Cc1ncccc1-c1n[nH]c2nc(N3CCC(C)(CN)CC3)cnc12` [Example 30, (4-methyl-1-(3-(2-methylpyridin-3-yl)-1H-pyrazolo[3,4-b]pyrazin-6-yl)-piperidin-4-yl) methanamine], the IC50 in assay [1] turned out to be 2510 nM; in assay [2] it was 1600 nM.
For `N[C@@H]1COCC12CCN(c1cnc3c(-c4c(F)cccc4Cl)n[nH]c3n1)CC2` [Example 40, (4S)-8-(3-(2-Chloro-6-fluorophenyl)-1H-pyrazolo[3,4-b]-pyrazin-6-yl)-2-oxa-8-azaspiro[4.5]-decan-4-amine], in that order: 203 nM and 186 nM.
For `Nc1nccc(-c2n[nH]c3nc(N4CCC5(CC4)COC[C@H]5N)cnc23)c1Cl` [Example 116, (S)-8-(3-(2-Amino-3-chloropyridin-4-yl)-1H-pyrazolo[3,4-b]pyrazin-6-yl)-2-oxa-8-azaspiro[4.5]decan-4-amine], in that order: 132 nM and 483 nM.
For `CC1(N)CCN(c2cnc3c(-c4ccnc(N)c4Cl)n[nH]c3n2)CC1` [Example 106, 4-(6-(4-Amino-4-methylpiperidin-1-yl)-1H-pyrazolo[3,4-b]pyrazine-3-yl)-3-chloropyridin-2-amine], in that order: 253 nM and 174 nM.
With `CC1(N)CCN(c2cnc3c(-c4ccc(F)c(Cl)c4)n[nH]c3n2)CC1` [Example 19, 1-(3-(3-Chloro-4-fluorophenyl)-1H-pyrazolo[3,4-b]-pyrazin-6-yl)-4-methylpiperidin-4-amine], the half-maximal inhibitory concentration (IC50) is 510 nM in assay [1] and 534 nM in assay [2].
For `N[C@@H]1CCCC12CCN(c1cnc3c(-c4cccc(Cl)c4)n[nH]c3n1)CC2` [Example 44, (R)-8-(3-(3-chloro-phenyl)-1H-pyrazolo[3,4-b]-pyrazin-6-yl)-8-aza-spiro[4.5]-decan-1-amine], in that order: 429 nM and 304 nM.
In the same order, the values of `NCC1(O)CCN(c2cnc3c(-c4ccnc(O)c4Cl)n[nH]c3n2)CC1` [Example 120, 4-(6-(4-(Aminomethyl)-4-hydroxypiperidin-1-yl)-1H-pyrazolo[3,4-b]pyrazin-3-yl)-3-chloropyridin-2-ol] are 5370 nM and 9700 nM.
For `CC1(CN)CCN(c2cnc3c(-c4ccccc4Cl)n[nH]c3n2)CC1` [Example 29], in that order: 178 nM and 87 nM.
`NCC1(O)CCN(c2cnc3c(-c4cccc(F)c4Cl)n[nH]c3n2)CC1` [Example 37, 4-(Aminomethyl)-1-(3-(2-chloro-3-fluorophenyl)-1H-pyrazolo[3,4-b]pyrazin-6-yl)-piperidin-4-ol]: the IC50 in assay [1] worked out at 623 nM; in assay [2] it was 223 nM.
In the case of `Clc1cccc(-c2n[nH]c3nc(N4CCC5(CCN5)CC4)cnc23)c1Cl` [Example 7, 3-(2,3-dichloro-phenyl)-6-(1,7-diaza-spiro[3.5]nonan-7-yl)-1H-pyrazolo[3,4-b]pyrazine], the IC50 in assay [1] amounted to 196 nM; in assay [2], 79 nM.
In the same order, the values of `N[C@@H]1CCCC12CCN(c1cnc3c(-c4ccc(Cl)cc4)n[nH]c3n1)CC2` [Example 17, (R)-8-(3-(4-chloro-phenyl)-1H-pyrazolo[3,4-b]-pyrazin-6-yl)-8-aza-spiro[4.5]decan-1-amine] are 118 nM and 82 nM.
On to `CC1(N)CCN(c2cnc3c(-c4cc(N)ncc4Cl)n[nH]c3n2)CC1` [Example 138, 4-[6-(4-amino-4-methylpiperidin-1-yl)-1H-pyrazolo[3,4-b]pyrazin-3-yl]-5-chloropyridin-2-amine], for which the IC50 in assay [1] came to 587 nM; in assay [2], 406 nM.
Take `CC1(CN)CCN(c2cnc3c(-c4cccc(C(F)(F)F)c4)n[nH]c3n2)CC1` [Example 22, (4-methyl-1-(3-(3-(trifluoromethyl)-phenyl)-1H-pyrazolo[3,4-b]pyrazin-6-yl)-piperidin-4-yl)-methanamine]: the figures for the IC50 in assay [1] and in assay [2] were 1750 nM and 976 nM, respectively.
For `CC1(N)CCN(c2cnc3c(-c4cn[nH]c4C(F)(F)F)n[nH]c3n2)CC1` [Example 101, 4-Methyl-1-(3-(5-(trifluoromethyl)-1H-pyrazol-4-yl)-1H-pyrazolo[3,4-b]pyrazin-6-yl)-piperidin-4-amine], in that order: 1890 nM and 638 nM.
In the same order, the values of `CNc1nccc(-c2n[nH]c3nc(N4CCC5(CCC[C@H]5N)CC4)cnc23)c1Cl` [Example 111, (R)-8-(3-(3-Chloro-2-(methylamino)pyridin-4-yl)-1H-pyrazolo[3,4-b]pyrazin-6-yl)-8-azaspiro[4.5]decan-1-amine] are 43 nM and 20 nM.
Take `NC1(CO)CCN(c2cnc3c(-c4ccccc4Cl)n[nH]c3n2)CC1` [Example 61, (4-amino-1-(3-(2-chlorophenyl)-1H-pyrazolo[3,4-b]-pyrazin-6-yl)-piperidin-4-yl)-methanol]: the IC50 in assay [1] was 401 nM; in assay [2] it was 221 nM.
Turning to `NCC1(O)CCN(c2cnc3c(-c4ccccc4Cl)n[nH]c3n2)CC1` [Example 60, 4-(aminomethyl)-1-(3-(2-chlorophenyl)-1H-pyrazolo[3,4-b]-pyrazin-6-yl)-piperidin-4-ol], the figures for the IC50 in assay [1] and in assay [2] were 918 nM and 317 nM, respectively.
Turning to `CC1(CN)CCN(c2cnc3c(-c4ccc(F)c(Cl)c4)n[nH]c3n2)CC1` [Example 14, (1-(3-(3-Chloro-4-fluorophenyl)-1H-pyrazolo[3,4-b]-pyrazin-6-yl)-4-methylpiperidin-4-yl) methanamine], the IC50 in assay [1] is 521 nM; in assay [2], 569 nM.
For `NCC1(O)CCN(c2cnc3c(-c4ccnc(N)c4Cl)n[nH]c3n2)CC1` [Example 114, 1-(3-(2-Amino-3-chloropyridin-4-yl)-1H-pyrazolo[3,4-b]pyrazin-6-yl)-4-(aminomethyl)piperidin-4-ol], in that order: 779 nM and 2490 nM.
In the case of `COc1cc(Cl)cc(-c2n[nH]c3nc(N4CCC(C)(CN)CC4)cnc23)c1` [Example 35, (1-(3-(3-chloro-5-methoxyphenyl)-1H-pyrazolo[3,4-b]-pyrazin-6-yl)-4-methylpiperidin-4-yl) methanamine], the IC50 was determined as 304 nM in assay [1] and 704 nM in assay [2].
For `NC1(CO)CCN(c2cnc3c(-c4cccc(Cl)c4Cl)n[nH]c3n2)CC1` [Example 57, (4-Amino-1-(3-(2,3-dichlorophenyl)-1H-pyrazolo[3,4-b]pyrazin-6-yl)piperidin-4-yl)-methanol], the IC50 in assay [1] was determined as 104 nM; in assay [2], 53 nM.
For `CC1(N)CCN(c2cnc3c(-c4ccc(Cl)c(Cl)c4)n[nH]c3n2)CC1` [Example 18, 1-(3-(3,4-dichloro-phenyl)-1H-pyrazolo[3,4-b]-pyrazin-6-yl)-4-methylpiperidin-4-amine], in that order: 141 nM and 667 nM.
For `CC1(CN)CCN(c2cnc3c(-c4ccncc4Cl)n[nH]c3n2)CC1` [Example 31, (1-(3-(3-chloro-pyridin-4-yl)-1H-pyrazolo[3,4-b]-pyrazin-6-yl)-4-methylpiperidin-4-yl) methanamine], in that order: 929 nM and 710 nM.
In the same order, the values of `CC1(CN)CCN(c2cnc3c(-c4cccc(Cl)c4F)n[nH]c3n2)CC1` [Example 25, (1-(3-(3-Chloro-2-fluorophenyl)-1H-pyrazolo[3,4-b]pyrazin-6-yl)-4-methylpiperidin-4-yl)-methanamine] are 101 nM and 47 nM.
`CC1(CN)CCN(c2cnc3c(-c4cc(Cl)cc(Cl)c4)n[nH]c3n2)CC1` [Example 11, (1-(3-(3,5-dichloro-phenyl)-1H-pyrazolo[3,4-b]-pyrazin-6-yl)-4-methylpiperidin-4-yl) methanamine]: the results for the IC50 in assay [1] and in assay [2] were 632 nM and 1170 nM, respectively.
Turning to `N[C@@H]1COCC12CCN(c1cnc3c(-c4ccccc4Cl)n[nH]c3n1)CC2` [Example 39, (S)-8-(3-(2-chloro-phenyl)-1H-pyrazolo[3,4-b]-pyrazin-6-yl)-2-oxa-8-azaspiro[4.5]-decan-4-amine], the values for the IC50 in assay [1] and in assay [2] were 158 nM and 103 nM, respectively.
In the same order, the values of `CC1(CN)CCN(c2cnc3c(-c4cc(N)ncc4Cl)n[nH]c3n2)CC1` [Example 133, 4-{6-[4-(amino-methyl)-4-methyl-piperidin-1-yl]-1H-pyrazolo[3,4-b]-pyrazin-3-yl}-5-chloropyridin-2-amine] are 840 nM and 533 nM.
For `N[C@@H]1CCCC12CCN(c1cnc3c(-c4ccc(F)c(Cl)c4)n[nH]c3n1)CC2` [Example 47, (R)-8-(3-(3-chloro-4-fluorophenyl)-1H-pyrazolo[3,4-b]-pyrazin-6-yl)-8-aza-spiro[4.5]decan-1-amine], in that order: 493 nM and 343 nM.
